Several values for one entry are separate records, joined by “and”; a condition that tells them apart may be missing. Identical values can stand only once.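 Briefly, cells in 96-well plates were exposed to five compound concentrations for 48 h, and endpoints were estimated by linear interpolation. GI50 = concentration required for 50% inhibition of growth. Definition used: TGI = concentration required for complete inhibition of growth.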
Assays:
Experiment in all cases: NCI anticancer screen, dose series, 48 h
OVCAR-3 ovarian = test system: OVCAR-3 ovarian
OVCAR-5 ovarian = test system: OVCAR-5 ovarian
SK-MEL-2 melanoma = test system: SK-MEL-2 melanoma
BT-549 breast = test system: BT-549 breast
DU-145 prostate = test system: DU-145 prostate
HL-60(TB) leukemia = test system: HL-60(TB) leukemia
MOLT-4 leukemia = test system: MOLT-4 leukemia
SF-539 CNS = test system: SF-539 CNS
SNB-75 CNS = test system: SNB-75 CNS
LOX IMVI melanoma = test system: LOX IMVI melanoma

SMILES	GI50 (OVCAR-3 ovarian)	GI50 (OVCAR-5 ovarian) [nM]	TGI (OVCAR-5 ovarian)	GI50 (SK-MEL-2 melanoma) [nM]	TGI (SK-MEL-2 melanoma) [µM]	GI50 (BT-549 breast) [nM]	TGI (BT-549 breast)	GI50 (DU-145 prostate) [nM]	TGI (DU-145 prostate)	GI50 (HL-60(TB) leukemia) [nM]	TGI (HL-60(TB) leukemia)	GI50 (MOLT-4 leukemia) [nM]	TGI (MOLT-4 leukemia)	GI50 (SF-539 CNS) [nM]	TGI (SF-539 CNS)	GI50 (SNB-75 CNS) [nM]	TGI (SNB-75 CNS)	GI50 (LOX IMVI melanoma) [nM]	TGI (LOX IMVI melanoma)	TGI (OVCAR-3 ovarian)
CCSC1=NC2C(N(CC)C(=O)N2CC)N1/N=C/C=C/c1ccccc1[N+](=O)[O-] (stereo unspecified)	169 nM	426	> 100 µM	567	> 100	284	4.23 µM	325	> 100 µM	205	0.502 µM	419	> 100 µM	80.4	0.736 µM	52.8	> 100 µM	126	> 100 µM	–
CC1CC(C)CC(C)C(O)/C(C#N)=C/C=C/CC(C2CCCC2C(=O)O)OC(=O)CC(O)C(C)C1 (stereo unspecified)	35.8 nM and 17.8 nM	23	0.282 µM and < 0.0365 µM	1.39	0.00545	50.1	0.636 µM and 0.321 µM	132	0.659 µM and 0.896 µM	16.6	0.0499 µM and 0.161 µM	26.9	0.0641 µM and 0.209 µM	5.1	0.0213 µM and 0.0146 µM	26.7	0.0853 µM and 0.11 µM	16.2	0.0479 µM and 0.0213 µM	0.199 µM and 0.0879 µM
O=C(Nc1cccc(Cl)c1)Nn1cnnc1	> 50000 nM	> 50000	> 50 µM and 22.5 µM	> 50000	> 100	> 50000	> 100 µM	> 50000	> 100 µM	> 50000	> 100 µM	> 50000	> 100 µM	> 50000	> 100 µM	> 50000	> 100 µM	> 50000	> 50 µM	> 100 µM
N#C[Se]Cc1cc(-c2ccccc2)n(-c2ccc(S(N)(=O)=O)cc2)n1	1180 nM	1860	3.97 µM	2320	5.6	1680	4.55 µM	735	2 µM	939	3.87 µM	433	4.36 µM	1380	2.77 µM	590	3.51 µM	171	0.324 µM	2.98 µM
CC(=O)Nc1ccc(-c2cc(C(=O)O)c3cc4ccccc4cc3n2)cc1	–	–	> 100 µM	–	> 100	–	> 100 µM	–	> 100 µM	–	> 100 µM	–	> 100 µM	–	> 100 µM	–	> 100 µM	–	> 100 µM	> 100 µM
Nc1nc2ccc(-c3nc4ccc5[nH]ncc5c4c4c3CCC4)cc2s1	187 nM	2640	11.9 µM	567	8.08	365	10.2 µM	787	5.62 µM	168	7.93 µM	294	10.7 µM	190	4.15 µM	115	0.55 µM	281	8.9 µM	10.8 µM
CCCN1C(=O)NC(=O)C(CC)(N2C(=O)c3c(F)c(F)c(F)c(F)c3C2=O)C1=O (stereo unspecified)	1690 nM	2040	4.11 µM	2950	8.32	2190	5.29 µM	1700	3.27 µM	1970	4.33 µM	2710	8.65 µM	1920	4.14 µM	1810	4.52 µM	1660	4.34 µM	3.16 µM
CO/N=C(\COc1ccc2c(c1)[nH]c1ccccc12)c1ccc(OC)cc1	32900 nM	61000	> 100 µM	–	–	> 100000	> 100 µM	> 100000	> 100 µM	62200	> 100 µM	27900	> 100 µM	13800	> 100 µM	6660	> 100 µM	19600	> 100 µM	> 100 µM
CCSCCCSCCSCC	–	–	> 100 µM	–	–	–	> 100 µM	–	> 100 µM	–	> 100 µM	–	84.5 µM	–	> 100 µM	–	> 100 µM	–	> 100 µM	> 100 µM
C/C(=N/O)c1cccc(Nc2cc(-n3nnc4ccccc43)nc3ccccc23)c1	13000 nM	22500	84.9 µM	28000	> 63.2	19500	54.7 µM	11600	41.3 µM	13100	49.9 µM	4050	> 40 µM	1620	5.88 µM	35600	> 100 µM	24200	93 µM	31.7 µM
CCN1C(=O)N(CC)C2C1NN=c1s/c(=C\c3ccc(Cl)cc3Cl)c(=O)n12 (stereo unspecified)	26.3 nM	54.7	> 81.5 µM	59.2	> 60	30.2	2.48 µM	33.2	1.38 µM	22.7	0.0534 µM	42.1	> 64.5 µM	24.1	0.0698 µM	25.8	0.971 µM	32.9	> 35.1 µM	0.0665 µM
O=C(O)c1nc(NCc2nc3cc(Cl)ccc3o2)n[nH]1	> 100000 nM	> 100000	> 100 µM	> 100000	> 100	> 100000	> 100 µM	> 100000	> 100 µM	> 100000	> 100 µM	> 100000	> 100 µM	> 100000	> 100 µM	> 100000	> 100 µM	> 100000	> 100 µM	> 100 µM
O=S(=O)(Nc1ccc(Br)cc1)c1ccc(-c2cnc(C3CC3)o2)cc1	1050 nM	4550	17.1 µM	4200	20.3	3370	19.4 µM	3800	17.4 µM	1470	6.41 µM	2160	24.2 µM	1860	5.91 µM	518	3.35 µM	2410	18 µM	3.96 µM

From PubChem BioAssay (NCI)
